Source: patent US20220125745A1, “PHARMACEUTICAL COMPOSITION FOR CO-ADMINISTRATION OF ACIDOSIS-INDUCING DRUG” (HAIM BIO CO., LTD., priority 2018, published 2022)
Where two headings read alike, the source gives them in different places.

Experiments:
[1] = test system: L132 cells (normal cells); assay: Lactate assay (luminescence) in L132 cells, candidate substance alone or combined with a substance that causes lactic acidosis; type: cell-based; conditions: L132; for Luminescence intensity (%), Berberine (10 μM) − / Luminescence intensity (%), Linezolid (200 μM) − / Luminescence intensity (%), Phenformin (100 μM) − / activity at 50 µM: candidate 50 μM alone, 24 h, vs negative control, mean ± SEM; for activity at 50 µM: Homo sapiens
Method: (§1) To identify the effects of administration of the candidate substances for lactic acidosis treatment as described in Example 1 in combination with the above-mentioned substances that cause lactic acidosis, A549 cells (cancer cells) or L132 cells (normal cells) were respectively seeded in 96- or 24-well plates at a concentration of 1×10^4 or 3×10^5 cells/well, and incubation was performed overnight. Administration of the candidate substance for acidosis treatment in combination with the substance that causes lactic acidosis was performed and incubation was further performed for 24 hours. For the candidate substances for acidosis treatment, each substance was administered at a uniform concentration of 50 μM; and for the substances that cause lactic acidosis, metformin was administered at 1 to 100 μM, isoniazid was administered at 1 to 500 μM, berberine was administered at 10 μM, linezolid was administered at 200 μM, and phenformin was administered at 100 μM. All substances were dissolved in dimethyl sulfoxide (DMSO, Sigma-Aldrich Corporation, St. Louis, Mo., USA), and the substances to be administered in combination were administered simultaneously. Subsequently, 50 μl of the cell culture solution obtained by being diluted with Dulbecco's Phosphate-Buffered Saline (DPBS; Wellgene, Korea), and 50 μl of the lactate assay reaction buffer (Promega, Madison, Wis., USA) were mixed and the mixture was added in a 96-well plate. Reaction was allowed to proceed at room temperature for 1 hour. Then, luminescence was measured with a spectrophotometer (Synergy HTX Multi-Reader; BioTek, Winooski, Vt., USA). At the same time, the number of cells in each sample was measured with a cell viability analysis kit (Cell Counting Kit-8; Dojindo Molecular Technologies, Inc., Kumamoto, Japan), and calculation was performed so that the lactic acid measurement value in each sample could be compared with that in the negative control for the same number of cells.

[2] = test system: A549 cells (cancer cells); assay: Lactate assay (luminescence) in A549 cells, candidate substance alone or combined with a substance that causes lactic acidosis; type: cell-based; conditions: A549; for Luminescence intensity (%), Berberine (10 μM) − / Luminescence intensity (%), Linezolid (200 μM) − / Luminescence intensity (%), Phenformin (100 μM) − / activity at 50 µM: candidate 50 μM alone, 24 h, vs negative control, mean ± SEM; for activity at 50 µM: Homo sapiens
Method: as §1

[3] = candidate 50 μM + berberine 10 μM, relative to berberine alone (PC)
[4] = candidate 50 μM + linezolid 200 μM, relative to linezolid alone (PC)
[5] = candidate 50 μM + phenformin 100 μM, relative to phenformin alone (PC)
[6] = no berberine, read-out: Luminescence intensity (%), Berberine (10 μM) −
[7] = no linezolid, read-out: Luminescence intensity (%), Linezolid (200 μM) −
[8] = no phenformin, read-out: Luminescence intensity (%), Phenformin (100 μM) −

SMILES | Lactic acid value vs. PC (%) [1, 3] [%] | Lactic acid-decreasing rate vs. PC (%) [1, 3] [%] | Lactic acid value vs. PC (%) [1, 4] [%] | Lactic acid-decreasing rate vs. PC (%) [1, 4] [%] | Lactic acid value vs. PC (%) [1, 5] [%] | Lactic acid-decreasing rate vs. PC (%) [1, 5] [%] | Luminescence intensity (%), Berberine (10 μM) − ([1]; no berberine) [%] | Luminescence intensity (%), Linezolid (200 μM) − ([1]; no linezolid) [%] | Lactic acid value vs. PC (%) [2, 3] [%] | Lactic acid-decreasing rate vs. PC (%) [2, 3] [%] | Lactic acid value vs. PC (%) [2, 4] [%] | Lactic acid-decreasing rate vs. PC (%) [2, 4] [%] | Lactic acid value vs. PC (%) [2, 5] [%] | Lactic acid-decreasing rate vs. PC (%) [2, 5] [%] | activity at 50 µM [1, 6] [%] | activity at 50 µM [1, 7] [%] | activity at 50 µM [1, 8] [%] | activity at 50 µM [2, 6] [%] | activity at 50 µM [2, 7] [%] | activity at 50 µM [2, 8] [%] | further results
Nc1c(O)cccc1C(=O)CC(N)C(=O)O (racemic) [3-hydroxy-DL-kynurenine, 3-Hydroxy-DL-kynurenine] | 87.31 | 12.69 | 86.39 | 13.61 | 91.76 | 8.24 | 87.48 ± 1.65 | 87.48 ± 1.65 | 92.55 | 7.45 | 83.68 | 16.32 | 91.34 | 8.66 |  |  |  |  |  |  | Luminescence intensity (%), Phenformin (100 μM) − ([1]; no phenformin): 87.48 ± 1.65 %; Luminescence intensity (%), Berberine (10 μM) − ([2]; no berberine): 91.52 ± 1.46 %; Luminescence intensity (%), Linezolid (200 μM) − ([2]; no linezolid): 91.52 ± 1.46 %; Luminescence intensity (%), Phenformin (100 μM) − ([2]; no phenformin): 91.52 ± 1.46 %
CCCCNC(=O)n1c(NC(=O)OC)nc2ccccc21 [Benomyl] | 85.38 | 14.62 | 84.83 | 15.17 | 93.03 | 6.97 |  |  | 88.55 | 11.45 | 84.32 | 15.68 | 92.74 | 7.26 | 85.4 ± 1.55 | 85.4 ± 1.55 | 85.4 ± 1.55 | 87.7 ± 1.21 | 87.7 ± 1.21 | 87.7 ± 1.21 | 
N.N.[Cl][Pt][Cl] [CDDP, Cis-diamminedichloridoplatinum] | 71.42 | 28.58 | 68.28 | 31.72 | 83.98 | 16.02 | 76.97 ± 2.13 | 76.97 ± 2.13 | 74.20 | 25.80 | 78.37 | 21.63 | 80.03 | 19.97 |  |  |  |  |  |  | Luminescence intensity (%), Phenformin (100 μM) − ([1]; no phenformin): 76.97 ± 2.13 %; Luminescence intensity (%), Berberine (10 μM) − ([2]; no berberine): 75.98 ± 2.34 %; Luminescence intensity (%), Linezolid (200 μM) − ([2]; no linezolid): 75.98 ± 2.34 %; Luminescence intensity (%), Phenformin (100 μM) − ([2]; no phenformin): 75.98 ± 2.34 %
CS(=O)(=O)Nc1ccc(-c2coc3cc(OCc4cccc(C(=O)O)c4)ccc3c2=O)cc1 [CVT-10216, 3-[[[3-[4-[(methylsulfonyl)amino]phenyl]-4-oxo-4H-chromen-7-yl]oxy]methyl]benzoic acid] | 103.15 | −3.15 | 100.28 | −0.28 | 99.21 | 0.79 |  |  | 95.79 | 4.21 | 92.93 | 7.07 | 92.13 | 7.87 | 97.7 ± 1.1 | 97.7 ± 1.1 | 97.7 ± 1.1 | 96.5 ± 1.04 | 96.5 ± 1.04 | 96.5 ± 1.04 | 
CCCNC(=O)NS(=O)(=O)c1ccc(Cl)cc1 [Chlorpropamide] | 102.38 | −2.38 | 90.11 | 9.89 | 96.68 | 3.32 |  |  | 90.69 | 9.31 | 86.81 | 13.19 | 94.87 | 5.13 | 92.4 ± 1.05 | 92.4 ± 1.05 | 92.4 ± 1.05 | 97 ± 1.24 | 97 ± 1.24 | 97 ± 1.24 | 
CC(C)=CCCC(C)=CC=O [Citral] | 102.03 | −2.03 | 102.02 | −2.02 | 99.57 | 0.43 |  |  | 95.67 | 4.33 | 103.20 | −3.20 | 93.80 | 6.20 | 102.4 ± 0.98 | 102.4 ± 0.98 | 102.4 ± 0.98 | 100.5 ± 0.81 | 100.5 ± 0.81 | 100.5 ± 0.81 | 
N#CN [Cyanamide] | 99.86 | 0.14 | 88.99 | 11.01 | 98.19 | 1.81 |  |  | 96.56 | 3.44 | 87.76 | 12.24 | 98.83 | 1.17 | 92.1 ± 1.56 | 92.1 ± 1.56 | 92.1 ± 1.56 | 97.02 ± 0.81 | 97.02 ± 0.81 | 97.02 ± 0.81 | 
CCN(CC)c1ccc(C=O)cc1 [DEAB, Diethylaminobenzaldehyde] | 106.10 | −6.10 | 105.21 | −5.21 | 92.79 | 7.21 | 93.41 ± 2.71 | 93.41±2.71 | 91.95 | 8.05 | 87.66 | 12.34 | 94.28 | 5.72 |  |  |  |  |  |  | Luminescence intensity (%), Phenformin (100 μM) − ([1]; no phenformin): 93.41 ± 2.71 %; Increase of lactic acid level as compared to the positive control group ([1]; in combination with linezolid, stated in text as an increase): 5.21%; Luminescence intensity (%), Berberine (10 μM) − ([2]; no berberine): 96.72 ± 0.78 %; Luminescence intensity (%), Linezolid (200 μM) − ([2]; no linezolid): 96.72 ± 0.78 %; Luminescence intensity (%), Phenformin (100 μM) − ([2]; no phenformin): 96.72 ± 0.78 %
